Reference: PubChem BioAssay AID179 (DTP/NCI, 2004)
Calls of active or inactive are those of the source.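 The calls were made as follows: active = compounds giving half or more protection of infected cells from virus-caused growth loss, again on retest; inactive = the rest.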

System: CEM cells HIV-1 protection, formazan growth assay
Assay: NCI AIDS Antiviral Assay
Details: for IC50: measured here: growth of uninfected CEM cells
Method in brief: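 Five concentrations of each compound were applied to infected and uninfected human CEM cells. Protection from HIV-1 was judged from growth measured with a soluble formazan assay.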

SMILES | EC50 [µM] | IC50 [µM] | outcome
CCSC1(SCC)CC(Cc2ccc(OC)cc2)N(C=NC(C)(C)C)C1 (configuration not stated) | > 240 | 57.5 | 
CNC(=O)CCNC(=O)CCC(=O)N(C)C | > 200 | > 200 | 
CC[C@H](NC(=O)OC(C)(C)C)C(=O)NCP(=O)(OCc1ccc([N+](=O)[O-])cc1)OCc1ccc([N+](=O)[O-])cc1 | > 200 | 33.9 | 
Cc1c2c(oc(=O)c1NC(=O)c1ccccc1)CCCCCC2 | > 200 | > 200 | 
COc1cc(C2OCC3C(c4ccc(O)c(OC)c4)OCC23)ccc1O (configuration not stated) |  |  | inactive
COc1c(O)c(O)cc2c1-c1ccc(OC)c(=O)cc1C(NC(C)=O)CC2 (configuration not stated) | > 200 | 1.05 | 
COc1cc2c3c(c1)C(O)CC[N+]3(C)CCC2 (configuration not stated) | > 200 | > 200 | 
Cc1cn(C2CC(N=[N+]=[N-])C(COC(=O)CCCCCCCCCCCCl)O2)c(=O)[nH]c1=O (configuration not stated) | 0.288 | 20 | 
O=C(NCCN1CCOCC1)c1cn2c(ccc3sc4ccccc4c(=O)c32)n1 | > 200 | 3.55 | 
COc1ccc2[nH]c(C(=O)N3CC(CCl)c4ccc(N)cc43)cc2c1 (configuration not stated) | > 2 | 0.389 | 
Cc1cc2c(ccc3c(C)cc(=O)oc32)o1 |  |  | inactive
C(=C(c1ccccc1)c1ccccc1)N1CCOCC1 | > 200 | > 200 | 
COc1ccc(-c2nc(SC3OC(COC(C)=O)C(OC(C)=O)C(OC(C)=O)C3OC(C)=O)n(C3OC(COC(C)=O)C(OC(C)=O)C(OC(C)=O)C3OC(C)=O)c(=O)c2C#N)cc1 (configuration not stated) |  | > 100 | 
Nc1ccccc1SC(CC(=O)c1ccccc1)c1ccc2c(c1)OCO2 (configuration not stated) | > 200 | 10.7 | 
O=C1NC(=O)C2C(=O)NC(=O)C1C2(c1ccccc1)c1cc[nH]c1 (configuration not stated) | > 22.4 | 16.6 | 
COc1ccc(CCN(C)CCCC2(C#N)c3ccccc3-c3ccccc32)cc1OC | > 60.3 | 47.9 | 
COc1ccc(/C=C/CO)cc1OC |  |  | inactive
c1ccc2[nH]c(-c3cscn3)nc2c1 | > 200 | > 200 | 
COc1ccc([C@@]23CCC(=O)C[C@@H]2N(C)CC3)cc1OC | > 200 | > 200 | 
COC(=O)CC1(O)C(/C=C/c2ccccc2)C(C(=O)OC)C(=O)C(C(=O)OC)C1C(=O)OC (configuration not stated) | > 50.1 | 37.2 | 
N#C/C(=C\NC(N)=S)c1nc2ccccc2s1 |  |  | inactive

SMILES | EC50 [µM] | IC50 [µM] | outcome
O=C1c2cccc(NCCCNCCO)c2C(=O)c2cccc(NCCCNCCO)c21 |  |  | inactive
CCCCCCCCCCCCn1[nH]c(C)c(C(=S)SCCCCCCCC)c1=O | > 57.5 | 56.2 | 
COC(=O)NNc1c([N+](=O)[O-])cnn(-c2ccccc2)c1=O | > 58.9 | 0.295 | 
CN(C)c1ccc(-c2nc3c(=O)n(C)c(=O)n(C)c3nc2-c2ccc(N(C)C)cc2)cc1 | > 200 | 126 | 
CC(C)=CC(=O)Cc1nc2cc(C)c(C)cc2[nH]c1=O |  |  | inactive
Cc1nnc2c3nnc(C)n3c3ccccc3n12 |  |  | inactive
C=CC1(c2ccc(OC)cc2)OCCCO1 | > 200 | 97.7 | 
COc1ccc(CCCNC(=O)c2cc(OC)c(OC)cc2CCO)cc1OC | > 200 | > 200 | 
C=CCNC(=S)/N=C/C(C(=O)Nc1ccccc1)=C(/C)O | > 200 | > 200 | 
COc1ccc2c(c1)C(=O)CC1c3cnccc3C(=O)N21 (configuration not stated) | > 200 | 115 | 
c1ccc(Nc2nn3c(CCCCCCCCc4nnc5sc(Nc6ccccc6)nn45)nnc3s2)cc1 | > 200 | 39.8 | 
CC1=CCC(C(C)(C)NC(=O)c2ccccc2)C/C1=N/O (configuration not stated) | > 91.2 | > 91.2 | 
CC(C)(C)C1(C#N)C(=O)N(c2ccc(Cl)cc2)C12c1ccccc1-c1ccccc12 (configuration not stated) | > 9.12 | > 9.12 | 
O=[N+]([O-])c1ccc(/C=[N+](\[O-])CCO)o1 | > 200 | 30.9 | 
CN(N=O)C(=O)N[C@@H](C=O)[C@@H](O)[C@H](O)[C@H](O)CO | > 933 | > 933 | 
O=C1c2cccnc2S(=O)(=O)N1c1ccc([N+](=O)[O-])cc1 | > 200 | 23.4 | 
NC(N)=NS(=O)(=O)c1ccc(N=c2c3ccccc3n(Cc3ccccc3)c3ccccc23)cc1 |  |  | inactive
N#CC12C(=O)NC(=O)C1(C#N)C2c1ccccc1 (configuration not stated) | > 501 | > 501 | 
CC1(C)C(=O)C2(C#N)CCC1C2 (configuration not stated) | > 200 | > 200 | 
C#CCNC(=O)NCCCCC(NC(=O)OCc1ccccc1)C(=O)OCc1ccccc1 (configuration not stated) | > 151 | 97.7 | 
O=c1[nH]c(CO)nc(O)c1Cl | > 200 | > 200 | 

SMILES | EC50 [µM] | IC50 [µM] | outcome
O=C1C[C@@H]2[C@@H](CCC23CC3)N1 | > 1660 | > 1660 | 
c1ccc(C2(c3ccccc3)S/C(=C3/SC(c4ccccc4)(c4ccccc4)c4ccccc43)c3ccccc32)cc1 |  |  | inactive
O=C(CCCCCCCCC(=O)OCC1OC(n2cnc3c(=O)[nH]cnc32)C(O)C1O)OCC1OC(n2cnc3c(=O)[nH]cnc32)C(O)C1O (configuration not stated) | > 355 | > 355 | 
O=[N+]([O-])/C(Cl)=C/C(=C1/Nc2ccccc2O1)[N+](=O)[O-] | > 200 | 30.2 | 
CCCCI(O)OS(=O)(=O)c1ccc(C)cc1 |  |  | inactive
CCOC(=O)C(C)(NC(=O)c1ccc(NCc2ccc3nc(NC(=O)c4ccccc4)nc(NC(=O)c4ccccc4)c3c2)cc1)C(=O)OCC | > 50.1 | 32.4 | 
COC(=O)C(Cc1ccc2c(c1)OCO2)(NC(=O)c1ccccc1)P(=O)(OC)OC (configuration not stated) | > 575 | > 575 | 
O=c1[nH]c2ccccc2c2oc3ccccc3c12 | > 200 | > 200 | 
COc1ccc2c(c1)CC1=C(O2)c2ccc(OC)cc2OC1 | > 200 | 10.2 | 
O=c1[nH]nc(CNc2ccc(Cl)cc2Cl)c2ccccc12 | 55 | 58.9 | 
S=c1sc2c(n1-c1ccccc1)NC=NC2S (configuration not stated) | > 468 | 22.9 | 
Cc1ccc(NC(=S)/C(=C(/[O-])c2ccc([N+](=O)[O-])cc2)[n+]2ccccc2)c(C)c1 | > 200 | > 200 | 
CCOC(=O)C1=C(C)NC(c2ccco2)=C(C#N)C1c1cccc([N+](=O)[O-])c1 (configuration not stated) | > 0.2 | 0.0832 | 
CC[C@H](OCc1ccccc1)/C(C)=C/C[C@@H](C)CO | > 27.5 | > 27.5 | 
CCOC(=O)CCC(NC(=O)OCc1ccccc1)C(=O)NC(CCC(=O)OCC)C(=O)NC(CCC(=O)OCC)C(=O)NC(CCC(=O)OCC)C(=O)NC(CCC(=O)OCC)C(=O)NC(CCC(=O)OCC)C(=O)NC(CCC(=O)OCC)C(=O)NC(CCC(=O)OCC)C(=O)NC(CCC(=O)OCC)C(=O)NC(CCC(=O)OCC)C(=O)NC(CCC(=O)OCC)C(=O)NC(CCC(=O)OCC)C(=O)OCC (configuration not stated) |  |  | inactive
CCCC(=O)OCC1(Cl)CCC2c3c(c4ccccc4n3C)CC1N2Cc1ccccc1 (configuration not stated) | > 11.5 | 6.92 | 
c1ccc2c(c1)c1c(n2CCOCCN2CCCC2)CCCC1 | > 200 | 9.55 | 
Cc1ccc(O)c(OC2OC(C(=O)O)C(O)C(O)C2O)c1 (configuration not stated) | > 832 | > 832 | 
CC(C)(C)n1c(=O)n(-c2ccccc2)n(C(C)(C)C)c1=O | > 200 | > 200 | 
N#Cc1nc(-c2ccccc2O)oc1N | > 200 | > 100 | 
